Counter-ions that a name gives are not always drawn.
Experiments:
[1] = Drug interaction studies with oral rilpivirine
Solubility in water = type: physicochemical
From the text: The cabotegravir tablet contains cabotegravir, as cabotegravir sodium. […] The tablet film-coating contains hypromellose, polyethylene glycol, and titanium dioxide.

[2] = Drug interaction studies with oral cabotegravir; conditions: cabotegravir 30 mg once daily; No Effect = 1.00
[3] = Established and other potentially significant drug interactions (Table 5); conditions: trial-based or predicted
[4] = rilpivirine 150 mg once daily, No Effect = 1.00
[5] = rilpivirine 25 mg once daily, No Effect = 1.00
[6] = rilpivirine 75 mg once daily, No Effect = 1.00

Which results are given for `CC(C)c1c(C(=O)Nc2ccc(O)cc2)c(-c2ccccc2)c(-c2ccc(F)cc2)n1CC[C@@H](O)C[C@@H](O)CC(=O)O` [4-hydroxy-atorvastatin]?
Geometric Mean Ratio of coadministered drug AUC with/without EDURANT [1, 4]: 1.23; Geometric Mean Ratio of coadministered drug Cmax with/without EDURANT [1, 4]: 1.28

With `CO[C@H]1/C=C/O[C@@]2(C)Oc3c(C)c(O)c4c(O)c(c(/C=N/N5CCN(C)CC5)c(O)c4c3C2=O)NC(=O)/C(C)=C\C=C\[C@H](C)[C@H](O)[C@@H](C)[C@@H](O)[C@@H](C)[C@H](O)[C@@H]1C` [25-desacetylrifampin] as the compound, how does the “Geometric Mean Ratio of coadministered drug AUC with/without EDURANT” value [1, 4] read?
The value was 0.91.

And the “Geometric Mean Ratio of coadministered drug Cmax with/without EDURANT” value [1, 4]?
The value was 1.00.

With `CC(=O)Nc1ccc(O)cc1` [Acetaminophen] as the compound, how does the “Geometric Mean Ratio of coadministered drug AUC with/without EDURANT” value [1, 4] read?
The value was 0.91.

And the “Geometric Mean Ratio of coadministered drug Cmax with/without EDURANT” value [1, 4]?
The value was 0.97.

For `C[C@H]1CO[C@@H]2Cn3cc(C(=O)NCc4ccc(F)cc4F)c(=O)c(O)c3C(=O)N12` [Cabotegravir sodium], which solubility in water (Solubility in water) is on record?
Its solubility in water is “slightly soluble”.

Which “Geometric Mean Ratio of coadministered drug AUC with/without EDURANT” value [1, 4] does the source give for `O=c1[nH]cnc2c1ncn2[C@H]1CC[C@@H](CO)O1` [Didanosine] here?
The value was 1.12.

What about the “Geometric Mean Ratio of coadministered drug Cmax with/without EDURANT” value [1, 4] of the same compound?
Its value is 0.96.

Which “Geometric Mean Ratio of coadministered drug AUC with/without EDURANT” value [1, 5] does the source give for `C[C@H]1O[C@@H](O[C@H]2[C@@H](O)C[C@H](O[C@H]3[C@@H](O)C[C@H](O[C@H]4CC[C@@]5(C)[C@H](CC[C@@H]6[C@@H]5C[C@@H](O)[C@]5(C)[C@@H](C7=CC(=O)OC7)CC[C@]65O)C4)O[C@@H]3C)O[C@@H]2C)C[C@H](O)[C@@H]1O` [Digoxin] here?
The value was 0.98.

And the “Geometric Mean Ratio of coadministered drug Cmax with/without EDURANT” value [1, 5]?
Its value is 1.06.

With `C#C[C@]1(O)CC[C@H]2[C@@H]3CCc4cc(O)ccc4[C@H]3CC[C@@]21C` [Ethinyl estradiol] as the compound, how does the “Geometric Mean Ratio of coadministered drug AUC with/without EDURANT” value [1, 5] read?
Its value is 1.14.

And the “Geometric Mean Ratio of coadministered drug Cmax with/without EDURANT” value [1, 5]?
The value was 1.17.

What about the “Geometric Mean Ratio of coadministered drug Cmin with/without EDURANT” value [1, 5] of the same compound?
Its value is 1.09.

What about the “Geometric Mean Ratio of AUC of coadministered drug with/without cabotegravir” value [2] of the same compound?
Its value is 1.02.

And the “Geometric Mean Ratio of Cmax of coadministered drug with/without cabotegravir” value [2]?
The value was 0.92.

And the “Geometric Mean Ratio of Cτ or C24 of coadministered drug with/without cabotegravir” value [2]?
The value was 1.00.

Which results are given for `CC(=O)N1CCN(c2ccc(OCC3COC(Cn4ccnc4)(c4ccc(Cl)cc4Cl)O3)cc2)CC1` (stereo not drawn) [Ketoconazole]?
Geometric Mean Ratio of coadministered drug AUC with/without EDURANT [1, 4]: 0.76; Geometric Mean Ratio of coadministered drug Cmax with/without EDURANT [1, 4]: 0.85; Geometric Mean Ratio of coadministered drug Cmin with/without EDURANT [1, 4]: 0.34

What does the source list for `C#C[C@]1(O)CC[C@H]2[C@@H]3CCC4=CC(=O)CC[C@@H]4[C@H]3CC[C@@]21CC` [Levonorgestrel]?
Geometric Mean Ratio of AUC of coadministered drug with/without cabotegravir [2]: 1.12; Geometric Mean Ratio of Cmax of coadministered drug with/without cabotegravir [2]: 1.05; Geometric Mean Ratio of Cτ or C24 of coadministered drug with/without cabotegravir [2]: 1.07

For `CN(C)C(=N)N=C(N)N` [Metformin], which “Geometric Mean Ratio of coadministered drug AUC with/without EDURANT” value [1, 5] is on record?
Its value is 0.97.

What about the “Geometric Mean Ratio of coadministered drug Cmax with/without EDURANT” value [1, 5] of the same compound?
Its value is 1.02.

Which results are given for `CCC(=O)C(CC(C)N(C)C)(c1ccccc1)c1ccccc1` (stereo not drawn) [Methadone]?
Effect on Concentration ([3]; with narcotic analgesic methadone): ↓Methadone; rilpivirine Cmin with/without coadministered drug ([1]; rilpivirine 25 mg once daily, comparison based on historic controls): ↔^b

For `Cc1ncc2n1-c1ccc(Cl)cc1C(c1ccccc1F)=NC2` [Midazolam], which “Geometric Mean Ratio of AUC of coadministered drug with/without cabotegravir” value [2] is on record?
The value was 1.10.

What about the “Geometric Mean Ratio of Cmax of coadministered drug with/without cabotegravir” value [2] of the same compound?
The value was 1.09.

Which “Geometric Mean Ratio of coadministered drug AUC with/without EDURANT” value [1, 6] does the source give for `CCCc1nn(C)c2c(=O)[nH]c(-c3cc(S(=O)(=O)N4CCNCC4)ccc3OCC)nc12` [N-desmethyl-sildenafil] here?
Its value is 0.92.

And the “Geometric Mean Ratio of coadministered drug Cmax with/without EDURANT” value [1, 6]?
The value was 0.90.

What does the source list for `C#C[C@]1(O)CC[C@H]2[C@@H]3CCC4=CC(=O)CC[C@@H]4[C@H]3CC[C@@]21C` [Norethindrone]?
Geometric Mean Ratio of coadministered drug AUC with/without EDURANT [1, 5]: 0.89; Geometric Mean Ratio of coadministered drug Cmax with/without EDURANT [1, 5]: 0.94; Geometric Mean Ratio of coadministered drug Cmin with/without EDURANT [1, 5]: 0.99

For `Cc1nnc(C(=O)NC(C)(C)c2nc(C(=O)NCc3ccc(F)cc3)c(O)c(=O)n2C)o1` [Raltegravir], which “Geometric Mean Ratio of coadministered drug AUC with/without EDURANT” value [1, 5] is on record?
Its value is 1.09.

And the “Geometric Mean Ratio of coadministered drug Cmax with/without EDURANT” value [1, 5]?
The value was 1.10.

And the “Geometric Mean Ratio of coadministered drug Cmin with/without EDURANT” value [1, 5]?
The value was 1.27.

With `CO[C@H]1/C=C/O[C@@]2(C)Oc3c(C)c(O)c4c(c3C2=O)C2=NC3(CCN(CC(C)C)CC3)NC2=C(NC(=O)/C(C)=C\C=C\[C@H](C)[C@H](O)[C@@H](C)[C@@H](O)[C@@H](C)[C@H](OC(C)=O)[C@@H]1C)C4=O` [Rifabutin] as the compound, how does the “Effect on Concentration” value ([3]; with antimycobacterial rifabutin) read?
Its value is “↔Rifabutin”.

What does the source list for `CO[C@H]1/C=C/O[C@@]2(C)Oc3c(C)c(O)c4c(O)c(c(/C=N/N5CCN(C)CC5)c(O)c4c3C2=O)NC(=O)/C(C)=C\C=C\[C@H](C)[C@H](O)[C@@H](C)[C@@H](O)[C@@H](C)[C@H](OC(C)=O)[C@@H]1C` [Rifampin]?
Geometric Mean Ratio of coadministered drug AUC with/without EDURANT [1, 4]: 0.99; Geometric Mean Ratio of coadministered drug Cmax with/without EDURANT [1, 4]: 1.02

With `CCCc1nn(C)c2c(=O)[nH]c(-c3cc(S(=O)(=O)N4CCN(C)CC4)ccc3OCC)nc12` [Sildenafil] as the compound, how does the “Geometric Mean Ratio of coadministered drug AUC with/without EDURANT” value [1, 6] read?
The value was 0.97.

What about the “Geometric Mean Ratio of coadministered drug Cmax with/without EDURANT” value [1, 6] of the same compound?
Its value is 0.93.

For `CC(C)OC(=O)OCOP(=O)(CO[C@H](C)Cn1cnc2c(N)ncnc21)OCOC(=O)OC(C)C` [Tenofovir disoproxil fumarate], which “Geometric Mean Ratio of coadministered drug AUC with/without EDURANT” value [1, 4] is on record?
The value was 1.23.

What about the “Geometric Mean Ratio of coadministered drug Cmax with/without EDURANT” value [1, 4] of the same compound?
Its value is 1.19.

And the “Geometric Mean Ratio of coadministered drug Cmin with/without EDURANT” value [1, 4]?
The value was 1.24.

For Lopinavir/ritonavir, which “Geometric Mean Ratio of coadministered drug AUC with/without EDURANT” value [1, 4] is on record?
The value was 0.99.

And the “Geometric Mean Ratio of coadministered drug Cmax with/without EDURANT” value [1, 4]?
The value was 0.96.

And the “Geometric Mean Ratio of coadministered drug Cmin with/without EDURANT” value [1, 4]?
The value was 0.89.

What about the “Geometric Mean Ratio of rilpivirine AUC with/without coadministered drug” value [1, 4] of the same compound?
The value was 0.99.

What about the “Geometric Mean Ratio of rilpivirine Cmax with/without coadministered drug” value [1, 4] of the same compound?
Its value is 0.96.

What about the “Geometric Mean Ratio of rilpivirine Cmin with/without coadministered drug” value [1, 4] of the same compound?
Its value is 0.89.
